Measured values published in publication PMC3335202 (Journal of Medicinal Chemistry, 2012).
Like-named read-outs stand apart in the source and are kept apart here.

How the values were obtained:
[1] = system: Human embryonic stem cell H9 lines carrying MYH6-mCherry reporters; test: hESC cardiogenesis assay; format: cell-based; conditions: for induction of cardiogenesis (class in words): dose-response behaviour
[2] = system: Human embryonic stem cell H9 lines carrying MYH6-mCherry reporters; conditions: cited from earlier work
[3] = system: β-catenin-dependent canonical Wnt pathway; test: Wnt inhibition assay; format: cell-based, human; conditions: for IC50: Wnt inhibition; for fold less potent in Wnt inhibition: compared with the well-tolerated parent (9/1)
[4] = Homo sapiens, HEK-293T, HEK293T cells

Row | Molecule | induction of cardiogenesis (class in words) ([1]; hESCs) | further results
1 | O=C(Nc1cccc2cccnc12)c1ccc(N2C(=O)[C@@H]3[C@H](C2=O)[C@@H]2C=C[C@H]3C2)cc1 [Compound 1, reference compound] | dose-dependent induction of cardiogenesis functional activity | cell toxicity (HEK293T cells; human): not toxic to HEK293T cells
2 | Oc1nc(-c2ccc(C(F)(F)F)cc2)nc2c1CSCC2 [Compound 2] | – | cell toxicity (HEK293T cells): did not induce cell toxicity; fold less potent than 1 and 3 (cardiogenesis) ([2]; hESCs): about 1.5 fold; maximum efficacious concentration for cardiogenesis ([2]; hESCs): 2 µM
3 | Cc1ccc2nc(NC(=O)CSc3nc4c(c(=O)n3-c3ccc(F)cc3)SCC4)sc2c1 [Compound 3] | – | maximum efficacious concentration for cardiogenesis ([2]; hESCs): 2.5 µM
4 | COc1ccc(/C=C2/SC(=S)N(CCCC(=O)O)C2=O)cc1OC [Compound 4] | – | cardiogenic activity (in words) ([2]; at 50 μM): weakly cardiogenic
5 | O=C(Nc1cccc2cccnc12)c1ccc(N2C(=O)[C@@H]3[C@@H]4CC[C@@H](C4)[C@@H]3C2=O)cc1 [Compound 9, 4-(cis-endo-1,3-Dioxooctahydro-2H-4,7-methanoisoindol-2-yl)-N-(quinolin-8-yl)benzamide] | dose-dependent induction of cardiogenesis functional activity | –
6 | O=C1[C@@H]2[C@@H]3CC[C@@H](C3)[C@@H]2C(=O)N1[C@H]1CC[C@H](C(=O)Nc2cccc3cccnc23)CC1 [Compound 10, 4-(cis-endo-1,3-Dioxooctahydro-2H-4,7-methanoisoindol-2-yl)-N-(quinolin-8-yl)-trans-cyclohexyl carboxamide] | potent stimulators of cardiogenesis | Emax ([1]; Homo sapiens, Embryonic stem cell, read-out: % cardiogenesis): 145%
7 | O=C1[C@@H]2[C@@H]3CC[C@@H](C3)[C@@H]2C(=O)N1[C@H]1CC[C@@H](C(=O)Nc2cccc3cccnc23)CC1 [Compound 11, 4-(cis-endo-1,3-Dioxooctahydro-2H-4,7-methanoisoindol-2-yl)-N-(quinolin-8-yl)-cis-cyclohexyl carboxamide] | dose-dependent induction of cardiogenesis functional activity | –
8 | O=C(Nc1cccc2ccccc12)c1ccc(N2C(=O)[C@@H]3[C@@H]4CC[C@@H](C4)[C@@H]3C2=O)cc1 [Compound 12, 4-(cis-endo-1,3-Dioxooctahydro-2H-4,7-methanoisoindol-2-yl)-N-(naphtalen-1-yl) benzamide] | functionally inactive as inducers of cardiogenesis | –
9 | O=C1[C@@H]2[C@@H]3CC[C@@H](C3)[C@@H]2C(=O)N1[C@H]1CC[C@H](C(=O)Nc2nccc3ccccc23)CC1 [Compound 13, 4-(cis-endo-1,3-Dioxooctahydro-2H-4,7-methanoisoindol-2-yl)-N-(isoquinolin-1-yl)-trans-cyclohexylcarboxamide] | dose-dependent induction of cardiogenesis functional activity | –
10 | O=C1[C@@H]2[C@@H]3CC[C@@H](C3)[C@@H]2C(=O)N1[C@H]1CC[C@H](C(=O)Nc2cncc3ccccc23)CC1 [Compound 14, 4-(cis-endo-1,3-Dioxooctahydro-2H-4,7-methanoisoindol-2-yl)-N-(isoquinolin-4-yl)-trans-cyclohexylcarboxamide] | dose-dependent induction of cardiogenesis functional activity | –
11 | O=C1[C@@H]2[C@@H]3CC[C@@H](C3)[C@@H]2C(=O)N1[C@H]1CC[C@H](C(=O)Nc2cccc3ccncc23)CC1 [Compound 18, 4-(cis-endo-1,3-Dioxooctahydro-2H-4,7-methanoisoindol-2-yl)-N-(isoquinolin-8-yl)-trans-cyclohexylcarboxamide] | dose-dependent induction of cardiogenesis functional activity | Z score at 625 nM ([1]; cardiogenesis, relative to DMSO control, 625 nM): negative
12 | COC(=O)c1ccccc1NC(=O)[C@H]1CC[C@H](N2C(=O)[C@@H]3[C@@H]4CC[C@@H](C4)[C@@H]3C2=O)CC1 [Compound 27] | dose-dependent induction of cardiogenesis functional activity | –
13 | O=C1CCCc2cccc(NC(=O)[C@H]3CC[C@H](N4C(=O)[C@@H]5[C@@H]6CC[C@@H](C6)[C@@H]5C4=O)CC3)c21 [Compound 29, 4-(cis-endo-(1,3-Dioxooctahydro-2H-4,7-methanoisoindol-2-yl))-N-(8-oxo-5,6,7,8-tetrahydronaphthalen-1-yl)-trans-cyclohexylcarboxamide] | potent stimulators of cardiogenesis | concentration giving maximum percent cardiogenesis ([1]; hESCs): 150 nM; fold greater cardiogenic potency (lower concentration) compared to 1 ([1]; ratio of concentrations for maximum cardiogenesis): 30 fold
14 | O=C1c2ccccc2-c2cccc(NC(=O)[C@H]3CC[C@H](N4C(=O)[C@@H]5[C@@H]6CC[C@@H](C6)[C@@H]5C4=O)CC3)c21 [Compound 30, 4-(cis-endo-(1,3-Dioxooctahydro-2H-4,7-methanoisoindol-2-yl))-N-(9H-fluoren-9-on-1-yl)-trans-cyclohexylcarboxamide] | dose-dependent induction of cardiogenesis functional activity | –
15 | O=C1[C@@H]2[C@@H]3CC[C@@H](C3)[C@@H]2C(=O)N1[C@H]1CC[C@H](C(=O)Nc2ccccn2)CC1 [Compound 31, 4-(cis-endo-(1,3-Dioxooctahydro-2H-4,7-methanoisoindol-2-yl))-N-(pyridin-2-yl)-trans-cyclohexyl carboxamide] | functionally inactive as inducers of cardiogenesis | IC50 [3, 4]: ~100 nM
16 | O=C1[C@@H]2[C@@H]3CC[C@@H](C3)[C@@H]2C(=O)N1[C@H]1CC[C@H](C(=O)Nc2ccncc2)CC1 [Compound 33, 4-(cis-endo-(1,3-Dioxooctahydro-2H-4,7-methanoisoindol-2-yl))-N-(pyridin-4-yl)-trans-cyclohexyl carboxamide] | functionally inactive as inducers of cardiogenesis | IC50 [3, 4]: ~100 nM
17 | CC(=O)c1ncccc1NC(=O)[C@H]1CC[C@H](N2C(=O)[C@@H]3[C@@H]4CC[C@@H](C4)[C@@H]3C2=O)CC1 [Compound 34, 4-(cis-endo-(1,3-Dioxooctahydro-2H-4,7-methanoisoindol-2-yl))-N-(2-acetyl-pyridin-3-yl)-trans-cyclohexylcarboxamide] | potent stimulators of cardiogenesis | –
18 | CC(=O)c1ccc(NC(=O)[C@H]2CC[C@H](N3C(=O)[C@@H]4[C@@H]5CC[C@@H](C5)[C@@H]4C3=O)CC2)cn1 [Compound 35, 4-(cis-endo-(1,3-Dioxooctahydro-2H-4,7-methanoisoindol-2-yl))-N-(6-acetyl-pyridin-3-yl)-trans-cyclohexylcarboxamide] | functionally inactive as inducers of cardiogenesis | –
19 | O=C(Nc1cccc2cccnc12)c1ccc(N2C(=O)[C@@H]3[C@H](C2=O)[C@@H]2C=C[C@H]3CC2)cc1 [Compound 36, 4-cis-endo-(3a,4,7,7a-Tetrahydro-1H-4,7-ethanoisoindole-1,3(2H)-dion-2-yl)-N-(quinolin-8-yl) benzamide] | – | fold less potent in Wnt inhibition [3]: > 10 fold
20 | O=C(Nc1cccc2cccnc12)c1ccc(N2C(=O)[C@@H]3[C@H]4CC[C@H](CC4)[C@@H]3C2=O)cc1 [Compound 37, 4-cis-endo-(Hexahydro-1H-4,7-ethanoisoindole-1,3(2H)-dion-2-yl)-N-(quinolin-8-yl) benzamide] | functionally inactive as inducers of cardiogenesis | IC50 [3, 4]: > 200 nM; fold less potent in Wnt inhibition [3]: > 10 fold
21 | O=C(Nc1cccc2cccnc12)c1ccc(N2C(=O)C3C(C2=O)[C@H]2CC[C@@H]3O2)cc1 (stereo partly shown) [Compound 39, 4-(Hexahydro-1H-4,7-epoxyisoindole-1,3(2H)-dion-2-yl)-N-(quinolin-8-yl)benzamide] | functionally inactive as inducers of cardiogenesis | fold less potent in Wnt inhibition [3]: > 10 fold
22 | COc1cc(Br)ccc1NC(=O)[C@H]1CC[C@H](N2C(=O)[C@@H]3[C@@H]4CC[C@@H](C4)[C@@H]3C2=O)CC1 [Compound 53, 4-(cis-endo-1,3-Dioxooctahydro-2H-4,7-methanoisoindol-2-yl)-N-(4-bromo-2-methoxyphenyl)-trans-cyclohexylcarboxamide] | dose-dependent induction of cardiogenesis functional activity | –
23 | O=C1[C@@H]2[C@@H]3CC[C@@H](C3)[C@@H]2C(=O)N1[C@H]1CC[C@H](C(=O)Nc2cncc(O)c2)CC1 [Compound 54, 4-(cis-endo-1,3-Dioxooctahydro-2H-4,7-methanoisoindol-2-yl)-N-(5-hydroxyl-pyridin-3-yl)-trans-cyclohexylcarboxamide] | dose-dependent induction of cardiogenesis functional activity | –
24 | O=C1[C@@H]2[C@@H]3CC[C@@H](C3)[C@@H]2C(=O)N1[C@H]1CC[C@H](C(=O)Nc2cccnc2Cl)CC1 [Compound 55, 4-(cis-endo-1,3-Dioxooctahydro-2H-4,7-methanoisoindol-2-yl)-N-(2-chloropyridin-3-yl)-trans-cyclohexylcarboxamide] | dose-dependent induction of cardiogenesis functional activity | –
25 | CC(=O)c1ccccc1NC(=O)[C@H]1CC[C@@H](N2C(=O)[C@@H]3[C@@H]4CC[C@@H](C4)[C@@H]3C2=O)CC1 [Compound 56, 4-(cis-endo-1,3-Dioxooctahydro-2H-4,7-methanoisoindol-2-yl)-N-(2-acetylphenyl)-cis-cyclohexyl carboxamide] | dose-dependent induction of cardiogenesis functional activity | –
26 | N-[4-((3aR,4S,7R,7aS)-1,3,3a,4,7,7a-Hexahydro-1,3-dioxo-4,7-methano-2H-isoindol-2-yl)phenyl]-quinoline-8-carboxamide [Compound 52] | functionally inactive as inducers of cardiogenesis | % inhibition (1 μM) ([3]; Wnt inhibition at 1 μM, HEK293T cells): 91 ± 1%; IC50 ([3]; HEK293T cells): 119 ± 9 nM
